According to patent US20060069132A1, “Azolecarboxamide herbicides” (priority 2004, published 2006):

Columns and labels:
[1] = test system: smallflower umbrella sedge; assay: Test C flooded paddy test; assay type: in vivo, Cyperus difformis
Experimental: (§1) At the same time, plants selected from these crop and weed species and also winter barley (Hordeum vulgare L.), blackgrass (Alopecurus myosuroides Huds.), canarygrass (Phalaris minor Retz.), chickweed (Stellaria media (L.) Vill.), downy bromegrass (Bromus tectorum L.), green foxtail (Setaria viridis (L.) Beauv.), Italian ryegrass (Lolium multiflorum Lam.), wheat (Triticum aestivum L.), wild oat (Avenafatua L.) and windgrass (Apera spica-venti (L.) Beauv.) were treated with postemergence applications of some of the test chemicals formulated in the same manner. Plants ranged in height from 2 to 18 cm (1- to 4-leaf stage) for postemergence treatments. Plant species in the flooded paddy test consisted of rice (Oryza sativa), smallflower umbrella sedge (Cyperus difformis L.), ducksalad (Heteranthera limosa (Sw.) Willd.) and barnyardgrass (Echinochloa crus-galli (L.) Beauv.) grown to the 2-leaf stage for testing. Treated plants and controls were maintained in a greenhouse for 12 to 14 days, after which time all species were compared to controls and visually evaluated. Plant response ratings, summarized in Table C, are based on a scale of 0 to 100 where 0 is no effect and 100 is complete control. A dash (-) response means no test result.

Surinam grass = assay: Test B pre-/postemergence herbicide test; assay type: in vivo, Urochloa decumbens; conditions: for Surinam Grass plant response rating: postemergence
In short: (§2)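 Formulation: non-phytotoxic solvent mix with surfactant. Timing: preemergence on seed and postemergence on 2–18 cm plants, applied concurrently. Readout after 13–15 d greenhouse: visual 0–100 control rating against controls.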

barnyardgrass [2] = assay: Test C flooded paddy test; assay type: in vivo, Echinochloa crus-galli
Experimental: as §1

large crabgrass = assay: Test B pre-/postemergence herbicide test; assay type: in vivo, Digitaria sanguinalis; conditions: for Crabgrass, Large plant response rating: postemergence
In short: as §2

barnyardgrass [3] = assay: Test B pre-/postemergence herbicide test; assay type: in vivo, Echinochloa crus-galli; conditions: for Barnyardgrass plant response rating: postemergence
In short: (§3)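 Visual rating, 0 (no effect) to 100 (complete control), versus untreated controls after 13–15 d in greenhouse. Pre- and postemergence applications (postemergence plants 2–18 cm, 1–4 leaves); flooded paddy arm at 2-leaf stage. Compounds in non-phytotoxic solvent plus surfactant.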

rice [4] = assay: Test B flooded paddy test; assay type: in vivo, Oryza sativa; conditions: 1000 g ai/ha, scale 0 to 100 (0 no effect, 100 complete control)
In short: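 Scale 0–100: zero equals no visible effect, 100 complete control, judged by eye relative to controls. Timing: 13 to 15 days in greenhouse post-treatment. Growth stage at spraying: two leaves (paddy) or one to four leaves, 2–18 cm (postemergence).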

giant foxtail = assay: Test B pre-/postemergence herbicide test; assay type: in vivo, Setaria faberi; conditions: for Foxtail, Giant plant response rating: postemergence
In short: as §2

corn = assay: Test B pre-/postemergence herbicide test; assay type: in vivo, Zea mays; conditions: for Corn plant response rating: postemergence
In short: as §2

ducksalad [5] = assay: Test C flooded paddy test; assay type: in vivo, Heteranthera limosa
Experimental: as §1

pigweed = assay: Test B pre-/postemergence herbicide test; assay type: in vivo, Amaranthus retroflexus; conditions: for Pigweed plant response rating: postemergence
In short: as §2

lambsquarters = assay: Test B pre-/postemergence herbicide test; assay type: in vivo, Chenopodium album; conditions: for Lambsquarters plant response rating: postemergence
In short: as §2

ducksalad [6] = assay: Test B flooded paddy test; assay type: in vivo, Heteranthera limosa; conditions: 1000 g ai/ha, scale 0 to 100 (0 no effect, 100 complete control)
In short: (§4)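 Visual ratings, 0 (no effect) to 100 (complete control), made versus controls after 13–15 d greenhouse. Paddy plants treated at 2-leaf stage; postemergence plants at 1- to 4-leaf stage, 2–18 cm tall.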

velvetleaf = assay: Test B pre-/postemergence herbicide test; assay type: in vivo, Abutilon theophrasti; conditions: for Velvetleaf plant response rating: postemergence
In short: as §2

morningglory = assay: Test B pre-/postemergence herbicide test; assay type: in vivo, Ipomoea coccinea; conditions: for Morningglory plant response rating: postemergence
In short: as §3

rice [7] = assay: Test C flooded paddy test; assay type: in vivo, Oryza sativa
Experimental: as §1

cocklebur = assay: Test B pre-/postemergence herbicide test; assay type: in vivo, Xanthium strumarium; conditions: for Cocklebur plant response rating: postemergence
In short: as §3

barnyardgrass [8] = assay: Test B flooded paddy test; assay type: in vivo, Echinochloa crus-galli; conditions: 1000 g ai/ha, scale 0 to 100 (0 no effect, 100 complete control)
In short: as §4

wheat = assay: Test B postemergence herbicide test; assay type: in vivo, Triticum aestivum; set-up: key to Wheat plant response rating: 0 = no effect, 100 = complete control; conditions: postemergence
In short: as §4

wild oat = assay: Test B postemergence herbicide test; assay type: in vivo, Avena fatua; conditions: postemergence
In short: as §4

blackgrass = assay: Test B postemergence herbicide test; assay type: in vivo, Alopecurus myosuroides; conditions: postemergence
In short: as §4

[9] = test system: small flower umbrella sedge; assay: Test B flooded paddy test; assay type: in vivo, Cyperus difformis; conditions: 1000 g ai/ha, scale 0 to 100 (0 no effect, 100 complete control)
In short: as §4

[10] = 125 g ai/ha, scale 0 to 100 (0 no effect, 100 complete control)
[11] = 250 g ai/ha, scale of 0 to 100, 0 is no effect, 100 is complete control
[12] = 500 g ai/ha, visual rating after 12 to 14 days, scale 0 to 100 (0 no effect, 100 complete control)
[13] = 125 g ai/ha, 0 is no effect, 100 is complete control, preemergence
[14] = 125 g ai/ha, visual rating, scale 0 (no effect) to 100 (complete control)
[15] = 500 g ai/ha, visual rating, 0 = no effect, 100 = complete control, preemergence
[16] = 500 g ai/ha, scale 0 to 100, 0 is no effect, 100 is complete control

What does the source list for `Cc1nn(C(C)(C)C)cc1C(=O)Nc1cc(C(=O)N(C)C)ccc1F` [Compound 344]?
Sedge, Umbrella plant response rating ([1]; 62 g ai/ha, scale 0 to 100): 0; Sedge, Umbrella plant response rating [1, 10]: 75; Sedge, Umbrella plant response rating [1, 11]: 75; Plant response rating, Sedge, Umbrella [1, 12]: 85; Plant response rating (0 to 100 scale), Surinam Grass (Surinam grass; [13]): 30; Surinam Grass plant response rating (Surinam grass; [14]): 0; Plant response rating, Surinam Grass (Surinam grass; [15]): 100; Surinam Grass plant response rating (Surinam grass; [16]): 10; Barnyardgrass plant response rating (barnyardgrass [2]; 62 g ai/ha, scale 0 to 100 (0 no effect, 100 complete control)): 0; Barnyardgrass plant response rating (barnyardgrass [2]; [10]): 0; Barnyardgrass plant response rating (barnyardgrass [2]; [11]): 0; Plant response rating, Barnyardgrass (barnyardgrass [2]; [12]): 0; Plant response rating (0 to 100 scale), Crabgrass, Large (large crabgrass; [13]): 60; Crabgrass, Large plant response rating (large crabgrass; [14]): 0; Crabgrass, Large plant response rating (large crabgrass; [16]): 10; Plant response rating (0 to 100 scale), Barnyardgrass (barnyardgrass [3]; [13]): 20; Barnyardgrass plant response rating (barnyardgrass [3]; [14]): 0; Plant response rating, Barnyardgrass (barnyardgrass [3]; [15]): 70; Barnyardgrass plant response rating (barnyardgrass [3]; [16]): 10; Rice plant response rating (rice [4]): 70; Plant response rating (0 to 100 scale), Foxtail, Giant (giant foxtail; [13]): 10; Foxtail, Giant plant response rating (giant foxtail; [14]): 10; Plant response rating, Foxtail, Giant (giant foxtail; [15]): 60; Foxtail, Giant plant response rating (giant foxtail; [16]): 10; Plant response rating (0 to 100 scale), Corn (corn; [13]): 10; Corn plant response rating (corn; [14]): 10; Plant response rating, Corn (corn; [15]): 90; Corn plant response rating (corn; [16]): 10; Ducksalad plant response rating (ducksalad [5]; 62 g ai/ha, scale 0 to 100): 0; Ducksalad plant response rating (ducksalad [5]; [10]): 0; Ducksalad plant response rating (ducksalad [5]; [11]): 20; Plant response rating, Ducksalad (ducksalad [5]; [12]): 45; Plant response rating (0 to 100 scale), Pigweed (pigweed; [13]): 90; Pigweed plant response rating (pigweed; [14]): 20; Plant response rating, Pigweed (pigweed; [15]): 90; Pigweed plant response rating (pigweed; [16]): 50; Plant response rating (0 to 100 scale), Lambsquarters (lambsquarters; [13]): 90; Lambsquarters plant response rating (lambsquarters; [14]): 20; Plant response rating, Lambsquarters (lambsquarters; [15]): 100; Lambsquarters plant response rating (lambsquarters; [16]): 40; Ducksalad plant response rating (ducksalad [6]): 80; Plant response rating (0 to 100 scale), Velvetleaf (velvetleaf; [13]): 40; Velvetleaf plant response rating (velvetleaf; [14]): 20; Velvetleaf plant response rating (velvetleaf; [16]): 30; Plant response rating (0 to 100 scale), Morningglory (morningglory; [13]): 10; Morningglory plant response rating (morningglory; [14]): 10; Plant response rating, Morningglory (morningglory; [15]): 80; Morningglory plant response rating (morningglory; [16]): 50; Rice plant response rating (rice [7]; 62 g ai/ha, scale 0 to 100): 0; Rice plant response rating (rice [7]; [10]): 0; Rice plant response rating (rice [7]; [11]): 0; Plant response rating, Rice (rice [7]; [12]): 15; Plant response rating (0 to 100 scale), Cocklebur (cocklebur; [13]): 20; Cocklebur plant response rating (cocklebur; [14]): 0; Plant response rating, Cocklebur (cocklebur; [15]): 70; Cocklebur plant response rating (cocklebur; [16]): 10; Barnyardgrass plant response rating (barnyardgrass [8]): 60; Wheat plant response rating (wheat; [14]): 0; Wheat plant response rating (wheat; [16]): 10; Oat, Wild plant response rating (wild oat; [14]): 0; Oat, Wild plant response rating (wild oat; [16]): 0; Blackgrass plant response rating (blackgrass; [14]): 0; Blackgrass plant response rating (blackgrass; [16]): 0; Sedge, Umbrella plant response rating [9]: 80
